Test results from article PMC11582101, “Unlocking the potential: unveiling tyrphostins with Michael-reactive cyanoacrylate motif as promising inhibitors of human 5-lipoxygenase” (Pflugers Archiv, 2024).
Several values for one entry are separate records, joined by “and”; a condition that tells them apart may be missing. Equal entries are not always repeated.

Experiments:
r5-LO_WT = target: T1, r5-LO_WT (Homo sapiens, UniProt P09917); test: Covalent inhibitor binding by mass spectrometry, r5-LO_WT; settings: 20 µM protein, 100 µM compound, at least 1 h RT
T1 construct: made in house; host or cells: E. coli BL21 (DE3)
T1 sequence (P09917 1-674): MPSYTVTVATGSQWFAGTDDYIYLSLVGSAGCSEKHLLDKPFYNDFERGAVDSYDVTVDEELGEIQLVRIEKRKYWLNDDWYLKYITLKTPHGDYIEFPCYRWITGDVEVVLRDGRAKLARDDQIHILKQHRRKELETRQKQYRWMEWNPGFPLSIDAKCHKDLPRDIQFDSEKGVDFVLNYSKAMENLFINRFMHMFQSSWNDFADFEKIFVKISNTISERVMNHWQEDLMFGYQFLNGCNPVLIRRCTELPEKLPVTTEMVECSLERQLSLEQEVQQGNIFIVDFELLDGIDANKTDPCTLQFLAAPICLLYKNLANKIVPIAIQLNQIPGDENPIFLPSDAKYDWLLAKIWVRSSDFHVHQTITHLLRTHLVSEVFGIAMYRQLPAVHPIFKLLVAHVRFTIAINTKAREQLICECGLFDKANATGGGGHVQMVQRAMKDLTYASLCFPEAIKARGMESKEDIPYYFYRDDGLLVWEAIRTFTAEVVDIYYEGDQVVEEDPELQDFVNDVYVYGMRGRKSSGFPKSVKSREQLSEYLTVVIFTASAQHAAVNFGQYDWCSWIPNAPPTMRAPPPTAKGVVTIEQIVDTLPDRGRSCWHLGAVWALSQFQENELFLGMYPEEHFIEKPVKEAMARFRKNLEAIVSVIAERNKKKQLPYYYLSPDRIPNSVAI

12-LO = target: T2, 12-LO (Homo sapiens, UniProt P18054); test: 12-HETE formation in platelets; settings: 20 µM AA, 2.5 µM A23187, n = 3–6
T2 sequence (P18054 1-663): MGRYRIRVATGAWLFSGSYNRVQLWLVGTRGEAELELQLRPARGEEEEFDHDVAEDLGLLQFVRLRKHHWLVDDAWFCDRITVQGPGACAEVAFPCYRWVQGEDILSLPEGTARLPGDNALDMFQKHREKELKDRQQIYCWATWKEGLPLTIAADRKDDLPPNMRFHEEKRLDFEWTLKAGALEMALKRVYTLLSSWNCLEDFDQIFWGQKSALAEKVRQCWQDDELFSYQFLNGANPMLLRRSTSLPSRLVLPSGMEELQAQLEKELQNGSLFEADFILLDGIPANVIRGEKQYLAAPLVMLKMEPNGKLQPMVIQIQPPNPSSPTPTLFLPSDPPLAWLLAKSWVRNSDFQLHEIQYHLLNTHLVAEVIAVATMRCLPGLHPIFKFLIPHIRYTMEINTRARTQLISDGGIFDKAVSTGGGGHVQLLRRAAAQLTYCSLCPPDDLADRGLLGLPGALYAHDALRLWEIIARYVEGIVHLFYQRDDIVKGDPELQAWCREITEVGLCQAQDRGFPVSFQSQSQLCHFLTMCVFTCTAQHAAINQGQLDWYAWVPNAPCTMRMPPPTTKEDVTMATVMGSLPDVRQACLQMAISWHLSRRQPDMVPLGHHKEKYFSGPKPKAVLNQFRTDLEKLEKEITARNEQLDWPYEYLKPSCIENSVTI

Her2/ErbB2 = system: Her2/ErbB2; parameters: method as in PMID 7892601; settings: original target of AG879; cited from earlier work
5-LO = target: T3, 5-LO (Homo sapiens, UniProt P09917); test: 5-LO product formation in intact PMNL; settings: IC50 for inhibition of 5-LO product formation, PMNL, intact PMNL, 20 µM AA, 2.5 µM A23187; (95% CI), n = 3–6
T3 sequence (P09917 1-674): T1 sequence (P09917 1-674)

15-LO = test: 15-HETE formation in intact PMNL; settings: read-out: IC50 for inhibition of 15-HETE formation, PMNL; intact PMNL, 20 µM AA, 2.5 µM A23187; (95% CI), n = 3–6
U2OS cells = settings: human, 10 µM

inhibitor adducts to r5-LO_WT detected by mass spectrometry (r5-LO_WT): did not detect mass shifts | IC50 for inhibition of 12-HETE formation, platelets (12-LO): no inhibition | IC50 (5-LO): 400 nM and 420 nM | IC50 (15-LO): > 25000 nM | normalized healthy cell count (U2OS cells): around 75%
SMILES: CC(C)(C)c1cc(/C=C(\C#N)C(N)=S)cc(C(C)(C)C)c1O [AG879]
IC50 (Her2/ErbB2): 1000 nM
